Results reported in patent US9249104B2, “Pyrazole indanyl carboxamides” (BAYER CROPSCIENCE AG, priority 2012, dated 2016).

Tests used:
Puccinia recondita = experiment: In vivo preventive test on Puccinia recondita (brown rust on wheat); conditions: 500 ppm, wheat plants sprayed 24 h before contamination, graded 12 days after contamination
Procedure: Wheat plants (“Scipion” variety), sown in starter cups on a 50/50 peat soil-pozzolana substrate and grown at 22° C., are treated at the 1-leaf stage (10 cm height) by spraying with the active ingredient prepared as described above. Plants, used as controls, are treated with the mixture of acetone/tween/DMSO/water not containing the active material. After 24 hours, the plants are contaminated by spraying the leaves with an aqueous suspension of Puccinia recondita spores (100 000 spores per ml). The spores are collected from an infected plant and are suspended in water to containing 2.5 ml/l of Tween 80 at 10%. […] Grading (% of efficacy) is carried out 12 days after the contamination, in comparison with the control plants.

[1] = logP by HPLC on reversed phase columns (EEC directive 79/831 Annex V.A8); assay type: physicochemical; conditions: method [a]: LC-MS at pH 2.7, 0.1% formic acid in water / acetonitrile
Uromyces appendiculatus = experiment: In vivo preventive test on Uromyces appendiculatus (bean rust); conditions: preventive, bean plants, dose of 500 ppm, grading 11 days after contamination
Procedure: Bean plants (“Saxa” variety), sown in starter cups on a 50/50 peat soil-pozzolana substrate and grown at 24° C., are treated at the 2-leaf stage (9 cm height) by spraying with the active ingredient prepared as described above. Plants, used as controls, are treated with the mixture of acetone/tween/DMSO/water not containing the active material. After 24 hours, the plants are contaminated by spraying the leaves with an aqueous suspension of Uromyces appendiculatus spores (150 000 spores per ml). The spores are collected from infected plants and are suspended in water containing 2.5 ml/1 of Tween 80 at 10%. […] Grading (% of efficacy) is carried out 11 days after the contamination, in comparison with the control plants.

Sphaerotheca fuliginea = experiment: In vivo preventive test on Sphaerotheca fuliginea (powdery mildew on cucurbits); conditions: 500 ppm, gherkin plants sprayed 24 h before contamination, graded 12 days after contamination
Procedure: Gherkin plants (“Vert petit de Paris” variety), sown in starter cups on a 50/50 peat soil-pozzolana substrate and grown at 24° C., are treated at the Z11 cotyledon stage by spraying with the active ingredient prepared as described above. Plants, used as controls, are treated with the mixture of acetone/tween/DMSO/water not containing the active material. After 24 hours, the plants are contaminated by spraying the cotyledons with an aqueous suspension of Sphaerotheca fuliginea spores (100 000 spores per ml). The spores are collected from infected plants. […] Grading (% of efficacy) is carried out 12 days after the contamination, in comparison with the control plants.

Septoria tritici = experiment: In vivo preventive test on Septoria tritici (leaf spot on wheat); conditions: 500 ppm, wheat plants sprayed 24 h before contamination, graded 24 days after contamination
Procedure: Wheat plants (“Scipion” variety), sown in starter cups on a 50/50 peat soil-pozzolana substrate and grown at 22° C., are treated at the 1-leaf stage (10 cm height) by spraying with the active ingredient prepared as described above. Plants, used as controls, are treated with the mixture of acetone/tween/DMSO/water not containing the active material. After 24 hours, the plants are contaminated by spraying the leaves with an aqueous suspension of cryopreserved Septoria tritici spores (500 000 spores per ml). The contaminated wheat plants are incubated for 72 hours at 18° C. and at 100% relative humidity, and then for 21 days at 90% relative humidity. Grading (% of efficacy) is carried out 24 days after the contamination, in comparison with the control plants.

[2] = compounds of formula (I), Table 1
[3] = amines of formula (III-a), Table 2

## CON=C1c2cccc(NC(=O)c3c(C)nn(C)c3F)c2CC1(C)C (mixture of isomers) [Example 34]
Puccinia recondita
  Eff. %: 71%

## CON=C1c2cccc(NC(=O)c3c(C)nn(C)c3C)c2CC1(C)C (mixture of isomers) [Example 35]
Puccinia recondita
  Eff. %: 79%

## CC(C)c1nn(C)cc1C(=O)Nc1cccc2c1CC(C(C)C)C2(C)C (racemic) [Example 61]
[1]; [2]
  logP: 4.56[a]

## Cc1c(C(=O)Nc2cccc3c2CC(C(C)C)C3(C)C)cnn1C (racemic) [Example 62]
Uromyces appendiculatus
  Eff. %: 99%
Puccinia recondita
  Eff. %: 81%
[1]; [2]
  logP: 3.73[a]

## CCc1c(C(=O)Nc2cccc3c2CC(CC)C3(C)C)cnn1C (racemic) [Example 63]
[1]; [2]
  logP: 3.83[a]

## CCCc1nn(C)cc1C(=O)Nc1cccc2c1CC(CC)C2(C)C (racemic) [Example 64]
[1]; [2]
  logP: 4.2[a]

## CCCc1nn(C)c(F)c1C(=O)Nc1cccc2c1CC(C(C)C)C2(C)C (racemic) [Example 65]
[1]; [2]
  logP: 5.29[a]

## CCC1Cc2c(NC(=O)c3cn(C)nc3C(C)C)cccc2C1(C)C (racemic) [Example 67]
[1]; [2]
  logP: 4.18[a]

## CCC1(CC)Cc2c(NC(=O)c3c(C)nn(C)c3F)cccc2C1C (racemic) [Example 70]
Uromyces appendiculatus
  Eff. %: 100%
Puccinia recondita
  Eff. %: 98%
[1]; [2]
  logP: 4.32[a]
Sphaerotheca fuliginea
  Eff. %: 98%

## Cc1c(C(=O)Nc2cccc3c2CC(C)C3(C)C)cnn1C (racemic) [Example 71]
Uromyces appendiculatus
  Eff. %: 79%
Puccinia recondita
  Eff. %: 81%
Septoria tritici
  Eff. %: 97%
[1]; [2]
  logP: 3[a]

## CCc1nn(C)cc1C(=O)Nc1cccc2c1CC(C)C2(C)C (racemic) [Example 73]
Uromyces appendiculatus
  Eff. %: 100%
Puccinia recondita
  Eff. %: 88%
[1]; [2]
  logP: 3.27[a]

## CC1Cc2c(NC(=O)c3cn(C)nc3[N+](=O)[O-])cccc2C1(C)C (racemic) [Example 76]
[1]; [2]
  logP: 3.67[a]

## CC1Cc2c(NC(=O)c3c(C4CC4)nn(C)c3Cl)cccc2C1(C)C (racemic) [Example 78]
[1]; [2]
  logP: 4.46[a]

## Cc1nn(C)c(Cl)c1C(=O)Nc1cccc2c1CC(C)C2(C)C (racemic) [Example 80]
Uromyces appendiculatus
  Eff. %: 100%
Puccinia recondita
  Eff. %: 98%
[1]; [2]
  logP: 3.83[a]

## CC1Cc2c(NC(=O)c3c(C(F)(F)F)nn(C)c3C(F)F)cccc2C1(C)C (racemic) [Example 81]
[1]; [2]
  logP: 4.09[a]

## CCc1nn(C)cc1C(=O)Nc1cccc2c1CC(CC)(CC)C2C (racemic) [Example 82]
[1]; [2]
  logP: 4.06[a]

## CC1Cc2c(NC(=O)c3c(C(F)(F)F)nn(C)c3F)cccc2C1(C)C (racemic) [Example 83]
Uromyces appendiculatus
  Eff. %: 100%
Puccinia recondita
  Eff. %: 98%
[1]; [2]
  logP: 4.09[a]

## CC1Cc2c(NC(=O)c3cn(C)nc3C(F)(F)C(F)(F)F)cccc2C1(C)C (racemic) [Example 85]
[1]; [2]
  logP: 4.21[a]

## CC(C)C1Cc2cccc(N)c2C1 (racemic) [Example III-a-1]
[1]; [3]
  logP: 2.25[a]

## CC(C)C1Cc2c(N)cccc2C1(C)C (racemic) [Example III-a-2]
[1]; [3]
  logP: 2.8[a]

## CC1Cc2c(N)cccc2C1(C)C (racemic) [Example III-a-3]
[1]; [3]
  logP: 1.95[a]

## Cn1cc(C(=O)Nc2cccc3c2CC(O)C3)c(C(F)F)n1 (centres unmarked) [Example 1]
Septoria tritici
  Eff. %: 70%

## CCc1nn(C)c(Cl)c1C(=O)Nc1cccc2c1CC(C)C2(C)C (centres unmarked) [Example 7]
Uromyces appendiculatus
  Eff. %: 100%
Puccinia recondita
  Eff. %: 96%
[1]; [2]
  logP: 4.31[a]

## CC1Cc2c(NC(=O)c3c(C(F)(F)F)nn(C)c3Cl)cccc2C1(C)C (centres unmarked) [Example 11]
Uromyces appendiculatus
  Eff. %: 100%
Puccinia recondita
  Eff. %: 96%
[1]; [2]
  logP: 4.26[a]

## CCc1nn(C)c(F)c1C(=O)Nc1cccc2c1CC(C)(C)C2C (centres unmarked) [Example 14]
Uromyces appendiculatus
  Eff. %: 100%
Puccinia recondita
  Eff. %: 98%
[1]; [2]
  logP: 3.99[a]

## Cc1c(C(=O)Nc2cccc3c2CC(C)C3(C)C)c(C(F)(F)F)nn1C (centres unmarked) [Example 18]
Puccinia recondita
  Eff. %: 75%
[1]; [2]
  logP: 3.83[a]

## CCCc1nn(C)c(F)c1C(=O)Nc1cccc2c1CC(C)C2(C)C (centres unmarked) [Example 19]
[1]; [2]
  logP: 4.39[a]

## CCCc1nn(C)cc1C(=O)Nc1cccc2c1CC(C)C2(C)C (centres unmarked) [Example 21]
Puccinia recondita
  Eff. %: 75%
[1]; [2]
  logP: 3.64[a]

## CC1Cc2c(NC(=O)c3cnn(C)c3Cl)cccc2C1(C)C (centres unmarked) [Example 22]
Puccinia recondita
  Eff. %: 81%
Septoria tritici
  Eff. %: 92%
[1]; [2]
  logP: 3.44[a]

## CC(C)c1nn(C)cc1C(=O)Nc1cccc2c1CC(C)C2(C)C (centres unmarked) [Example 23]
Uromyces appendiculatus
  Eff. %: 89%
Puccinia recondita
  Eff. %: 81%
[1]; [2]
  logP: 3.69[a]

## Cc1nn(C)c(C)c1C(=O)Nc1cccc2c1CC(C(C)C)C2(C)C (centres unmarked) [Example 42]
Uromyces appendiculatus
  Eff. %: 100%
Puccinia recondita
  Eff. %: 100%
[1]; [2]
  logP: 3.87[a]
Sphaerotheca fuliginea
  Eff. %: 100%

## Cc1nn(C)c(C)c1C(=O)Nc1cccc2c1CC(C)(C)C2 [Example 43]
Puccinia recondita
  Eff. %: 89%
[1]; [2]
  logP: 2.77[a]

## Cc1nn(C)c(F)c1C(=O)Nc1cccc2c1CC(C)(C)C2 [Example 44]
Uromyces appendiculatus
  Eff. %: 98%
Puccinia recondita
  Eff. %: 78%

## CCc1c(C(=O)Nc2cccc3c2CC(C(C)C)C3(C)C)cnn1C (centres unmarked) [Example 46]
[1]; [2]
  logP: 4.21[a]

## CCCc1nn(C)cc1C(=O)Nc1cccc2c1CC(C(C)C)C2(C)C (centres unmarked) [Example 47]
[1]; [2]
  logP: 4.51[a]

## CCCc1nn(C)c(F)c1C(=O)Nc1cccc2c1CC(CC)C2(C)C (centres unmarked) [Example 48]
[1]; [2]
  logP: 4.85[a]
Sphaerotheca fuliginea
  Eff. %: 94%

## CCC1Cc2c(NC(=O)c3c(C(F)(F)F)nn(C)c3C)cccc2C1(C)C (centres unmarked) [Example 49]
Uromyces appendiculatus
  Eff. %: 99%
Puccinia recondita
  Eff. %: 94%
[1]; [2]
  logP: 4.3[a]

## CCC1(CC)Cc2c(NC(=O)c3c(C)nn(C)c3C)cccc2C1C (centres unmarked) [Example 51]
[1]; [2]
  logP: 3.85[a]

## Cc1nn(C)c(C(F)(F)Cl)c1C(=O)Nc1cccc2c1CC(C(C)C)C2(C)C (centres unmarked) [Example 53]
[1]; [2]
  logP: 4.86[a]

## Cc1c(C(=O)Nc2cccc3c2CC(C(C)C)C3(C)C)c(C(F)(F)F)nn1C (centres unmarked) [Example 54]
Uromyces appendiculatus
  Eff. %: 83%
Puccinia recondita
  Eff. %: 81%
[1]; [2]
  logP: 4.66[a]

## Cc1nn(C)c(C)c1C(=O)Nc1cccc2c1CC(C)(C)C2C (centres unmarked) [Example 55]
Uromyces appendiculatus
  Eff. %: 100%
Puccinia recondita
  Eff. %: 100%
[1]; [2]
  logP: 3.09[a]
Sphaerotheca fuliginea
  Eff. %: 88%

## CCC1Cc2c(NC(=O)c3c(C)nn(C)c3C(F)(F)Cl)cccc2C1(C)C (centres unmarked) [Example 58]
[1]; [2]
  logP: 4.46[a]

## CCC1Cc2c(NC(=O)c3cnn(C)c3C)cccc2C1(C)C (centres unmarked) [Example 59]
Uromyces appendiculatus
  Eff. %: 100%
Puccinia recondita
  Eff. %: 89%
[1]; [2]
  logP: 3.42[a]

## Cc1nn(C)c(F)c1C(=O)Nc1cccc2c1CC(C)(C)C2C (centres unmarked) [Example 60]
Uromyces appendiculatus
  Eff. %: 100%
Puccinia recondita
  Eff. %: 98%
[1]; [2]
  logP: 3.5[a]
Sphaerotheca fuliginea
  Eff. %: 98%

## Cc1c(C(=O)Nc2cccc3c2CC(C)C3(C)C)c(C(F)(F)Cl)nn1C (centres unmarked) [Example 72]
[1]; [2]
  logP: 3.99[a]

## CC(C)C1Cc2c(N)cccc2C1C (centres unmarked) [Example III-a-5]
[1]; [3]
  logP: 2.34[a]

## CC1c2cccc(N)c2CC12CCCC2 (centres unmarked) [Example III-a-7, 1′-methyl-1′,3′-dihydrospiro[cyclopentane-1,2′-inden]-4′-amine]
[1]; reversed phase HPLC columns, amines of formula (III-a), Table 2, read-out: logP
  chromatographic logP: 2.39

## Nc1cccc2c1CC(Cc1ccccc1)C2 (centres unmarked) [Example III-a-8]
[1]; [3]
  logP: 2.54[a]

## CC1Cc2c(N)cccc2C1C (centres unmarked) [Example III-a-13]
[1]; [3]
  logP: 1.44[a]

## CC1c2c(N)cccc2C(C)(C)C1C (centres unmarked) [Example III-a-14]
[1]; [3]
  logP: 2.4[a]

## CCC1Cc2c(N)cccc2C1(C)C (centres unmarked) [Example III-a-17]
[1]; [3]
  logP: 2.47[a]

## CCC1(CC)Cc2c(N)cccc2C1C (centres unmarked) [Example III-a-18]
[1]; [3]
  logP: 2.63[a]

## Nc1cccc2c1CC1(CCCC1)C2 [III-a-4]
[1]; [3]
  logP: 2.1[a]

## CCC1Cc2cccc(N)c2C1 (centres unmarked) [III-a-6]
[1]; [3]
  logP: 1.76[a]

## CC(C)C1Cc2cccc(N)c2C1C (centres unmarked) [III-a-9]
[1]; [3]
  logP: 2.9[a]

## Nc1cccc2c1CC(C1CCCC1)C2 (centres unmarked) [III-a-11]
[1]; [3]
  logP: 2.94[a]

## CON=C1c2cccc(N)c2CC1(C)C [III-a-12]
[1]; [3]
  logP: 2.08[a]
